# Reference: US9302999B2, “Substituted triazoles as herbicides” (E. I. DU PONT DE NEMOURS AND COMPANY, priority 2012, dated 2016)
# Test system: waterhemp_RES1 (ALS/Triazine resistant common waterhemp, Amaranthus rudis)
# Experiment: Test F postemergence: waterhemp_RES1
# Assay type: in vivo
# Conditions: scale 0 to 100
# Excerpt: Seeds of plant species selected from corn (Zea mays), soybean (Glycine max), velvetleaf (Abutilon theophrasti), lambsquarters (Chenopodium album), poinsettia, wild (wild poinsettia, Euphorbia heterophylla), pigweed, palmer (palmer pigweed, Amaranthus palmeri), waterhemp (common waterhemp, Amaranthus rudis), surinam grass (Brachiaria decumbens), crabgrass, Brazil (Brazilian crabgrass, Digitaria horizontalis), panicum, fall (fall panicum Panicum dichotomiflorum), crabgrass, large (large crabgrass, Digitaria sanguinalis), foxtail, giant (giant foxtail, Setaria faberii), foxtail, green (green foxtail Setaria viridis), goosegrass (Eleusine indica), ragweed (common ragweed, Ambrosia elatior), barnyardgrass (Echinochloa crus-galli), sandbur (southern sandbur, Cenchrus echinatus), arrowleaf sida (Sida rhombifolia), ryegrass, Italian (Italian ryegrass, Lolium multiflorum), dayflower, VA (Virginia (VA) dayflower, Commelina virginica), field bindweed (Convolvulus arvensis), cocklebur (common cocklebur, Xanthium strumarium), morningglory (Ipomoea coccinea), nightshade (eastern black nightshade, Solanum ptycanthum), kochia (Kochia scoparia), nutsedge, yellow (yellow nutsedge, Cyperus esculentus), johnsongrass (Sorghum halepense), smartweed (ladysthumb smartweed, Polygonum persicaria), and beggarticks (hairy beggarticks, Bidens pilosa), were planted into a silt loam soil and treated preemergence with test chemicals formulated in a non-phytotoxic solvent mixture which included a surfactant. At the same time, plants selected from these crop and weed species and also pigweed (Amaranthus retroflexus), waterhemp_RES1 (ALS/Triazine resistant common waterhemp, Amaranthus rudis) and waterhemp_RES2 (ALS/HPPD resistant common waterhemp, Amaranthus rudis) were planted in pots containing a planting medium comprising spaghnum peat moss, vermiculite, wetting agent and starter nutrients treated with postemergence applications of some of the test chemicals formulated in the same manner. Plants ranged in height from 2 to 18 cm for postemergence treatments (1- to 4-leaf stage).
# Treated plants and controls were maintained in a greenhouse for 14 to 21 days, after which time all species were compared to controls and visually evaluated. Plant response ratings, summarized in Table E, are based on a scale of 0 to 100 where 0 is no effect and 100 is complete control. A dash (-) response means no test result.
Compound,"Plant response rating, Waterhemp, Res1 (8 g ai/ha)","Plant response rating, Waterhemp, Res1 (16 g ai/ha)","Plant response rating, Waterhemp, Res1 (31 g ai/ha)","Plant response rating, Waterhemp, Res1 (62 g ai/ha)","Plant response rating, Waterhemp, Res1 (125 g ai/ha)","Plant response rating, Waterhemp, Res1 (250 g ai/ha)"
"CCOc1nn(-c2ccc(F)cc2)nc1Cc1ccnc(C(F)(F)F)c1 [Compound 196, 4-[[5-ethoxy-2-(4-fluorophenyl)-2H-1,2,3-triazol-4-yl]methyl]-2-(trifluoromethyl)pyridine]",95,95,95,95,100,–
CCc1nn(-c2ccc(C(F)(F)F)cc2)nc1Oc1ccnc(C(F)(F)F)c1 [Compound 169],–,85,90,90,95,95
Cc1nn(-c2ccnc(Cl)c2)nc1Cc1ccnc(C(F)(F)F)c1 [Compound 141],90,95,95,95,95,–
CCCc1nn(-c2ccc(F)c(F)c2)nc1Oc1ccnc(C(F)(F)F)c1 [Compound 172],–,–,70,–,95,95
